Measurements from PMC11274801, “A Novel PDE10A Inhibitor for Tourette Syndrome and Other Movement Disorders” (Cells, 2024).

Key:
[1] = tested on: acute schizophrenia; conditions: press release ref 44; cited from earlier work
[2] = tested on: striatal cAMP and cGMP; assay: cAMP and cGMP levels in the striatum; assay type: in vivo, rat; conditions: maximal dose 30 mg/kg
Protocol: The striatum was dissected, weighed, and then frozen in liquid nitrogen. For cyclic nucleotide measurements, frozen striatal tissue was homogenized in 5% trichloroacetic acid and centrifuged and the supernatant was collected. Supernatants were ether-washed and then the cAMP and cGMP levels in the aqueous phase were determined by enzyme immunoassay using kits from Cayman Chemical Co. (Ann Arbor, MI, USA)

[3] = tested on: patients with stage I–II HD; set-up: method as in earlier work; conditions: cited from earlier work
[4] = tested on: primates; set-up: method as in PMID 24490227; conditions: cited from earlier work
[5] = tested on: D2 receptor; conditions: 2–5 mg daily ref 54; cited from earlier work

## Cc1ncc(C)n2nc(-c3ccn4cc(-c5ccccc5)nc4n3)nc12 [CPL500-036]
[1]
  efficacy in acute schizophrenia: positive efficacy vs. placebo

## Cn1cc(-c2ccncc2)c(-c2ccc(OCc3ccc4ccccc4n3)cc2)n1 [MP-10]
[2]
  effect on striatal cAMP and cGMP levels: increases
[3]; 26-week phase 2, 272 patients ref 45
  primary outcome (UHDRS-TMS) and clinical global impression of improvement: no improvement in the primary outcome measure
[3]; 26-week phase 2 ref 45
  quantitative motor assessment (Q-motor): dose-dependent improvement
[4]
  effect on motivational aspects of behavior: dampen motivational aspects of behavior to a greater extent than a D2 antagonist

## O=C(CCCN1CCC(O)(c2ccc(Cl)cc2)CC1)c1ccc(F)cc1 [haloperidol]
[5]
  D2 occupancy: 60–80%
